Data from US6939680B2 (H. Lundbeck A/S, priority 1990, dated 2005).
Read-outs that look alike come from different tables or passages of the source.

Columns and labels:
[1] = target: T1, human dopamine D1 receptor clone GL-30 (dopamine D1β receptor) (Homo sapiens, UniProt P21918); assay: [3H]SCH-23390 radioligand binding (saturation and competition) to membranes of Cos-7 cells transfected with clone GL-30
T1 construct: expressed in transfected cells; host or cells: Cos-7 cells, transient transfection with pcEXV-3 carrying GL-30

[2] = system: DA1 receptor; conditions: clinical trials; cited from earlier work
[3] = competition binding, GL-30 in Cos-7 membranes

T1 sequence (P21918 whole entry): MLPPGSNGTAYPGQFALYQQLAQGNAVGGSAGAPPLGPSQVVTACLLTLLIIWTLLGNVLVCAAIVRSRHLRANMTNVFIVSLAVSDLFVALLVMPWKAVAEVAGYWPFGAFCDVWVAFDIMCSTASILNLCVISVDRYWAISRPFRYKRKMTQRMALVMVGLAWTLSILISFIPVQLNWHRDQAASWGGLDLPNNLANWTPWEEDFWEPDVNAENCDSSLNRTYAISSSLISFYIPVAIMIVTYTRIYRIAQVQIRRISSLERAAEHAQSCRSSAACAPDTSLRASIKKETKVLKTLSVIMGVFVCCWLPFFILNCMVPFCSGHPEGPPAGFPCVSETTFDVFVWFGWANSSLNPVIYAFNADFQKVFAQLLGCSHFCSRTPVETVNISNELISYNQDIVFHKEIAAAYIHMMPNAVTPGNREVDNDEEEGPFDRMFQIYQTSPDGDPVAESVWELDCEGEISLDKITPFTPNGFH

| Compound | potency/affinity in displacing [3H]SCH-23390 binding (in words) [1, 3] | potency/affinity in displacing [3H]SCH-23390 binding (in words) [1] | further results |
| --- | --- | --- | --- |
| CCN1CCC[C@H]1CNC(=O)c1cc(S(N)(=O)=O)ccc1OC [(−) sulpiride] | low affinity | – | – |
| COc1ccc2c(c1O)-c1c3c(cc4c1[C@H](C2)N(C)CC4)OCO3 [bulbocapnine] | – | – | Ki values compared with those reported for the D1 receptor ([1]; versus native rat and human brain tissues and Cos-7 cells transfected with the previously cloned D1 gene): comparable |
| Oc1ccc(C2CNCCc3c2cc(O)c(O)c3Cl)cc1 (stereo not drawn) [fenoldopam] | – | – | renal vasodilatory action [2]: potent renal vasodilatory action |
| NC[C@H](O)c1ccc(O)c(O)c1 [norepinephrine] | inactive | – | – |
| CCCN1CCC[C@@H]2Cc3n[nH]cc3C[C@H]21 [quinpirole] | – | low affinity | – |
| cis-flupenthixol | – | most potent | – |
